Experimental data: patent US11351173B2, “Substituted pyrrolo[1,2-a]pyrimidines and their use in the treatment of medical disorders” (Bial—R&D Investments, S.A., priority 2014, dated 2022)
Converted amounts (≈) assume the structure as drawn.

How the values were obtained:
[1] = target: T1, glucocerebrosidase (Gcase) (Homo sapiens, UniProt P04062); experiment: Glucocerebrosidase (Gcase) activation assay, 4-methylumbelliferyl-beta-D-glucopyranoside substrate, fluorescence readout; format: biochemical; settings: for activation at 0.1 µM / Percent Gcase Activation, 0.1 μM Test Compound: test compound at 0.1 μM; for activation at 0.1 µM: read-out: Percent Gcase Activation, 0.1 μM Test Compound; for activation at 1 µM / Percent Gcase Activation, 1 μM Test Compound: test compound at 1.0 μM; for activation at 1 µM: read-out: Percent Gcase Activation, 1 μM Test Compound
T1 construct: micellar solution containing 10 nM GCase and 100 nM saposin C
T1 sequence (P04062 40-536): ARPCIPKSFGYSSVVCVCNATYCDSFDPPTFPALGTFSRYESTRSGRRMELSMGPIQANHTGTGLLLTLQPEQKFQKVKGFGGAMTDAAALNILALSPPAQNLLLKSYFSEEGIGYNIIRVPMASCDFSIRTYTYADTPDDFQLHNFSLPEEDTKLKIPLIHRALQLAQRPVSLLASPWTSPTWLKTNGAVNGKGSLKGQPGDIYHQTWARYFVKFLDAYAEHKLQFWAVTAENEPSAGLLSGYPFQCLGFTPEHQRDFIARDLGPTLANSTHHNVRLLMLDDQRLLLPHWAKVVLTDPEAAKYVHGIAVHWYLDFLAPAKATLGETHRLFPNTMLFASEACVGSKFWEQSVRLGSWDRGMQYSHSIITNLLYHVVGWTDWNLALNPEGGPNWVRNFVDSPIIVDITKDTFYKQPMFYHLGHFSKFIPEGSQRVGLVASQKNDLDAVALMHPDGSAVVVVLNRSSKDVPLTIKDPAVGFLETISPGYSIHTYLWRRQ
Outline: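 Test compounds are first screened at 1.0 and 0.1 μM final, then titrated in 8 points (3-fold from 5 μM) against human GCase with saposin C in phosphatidylserine/triton X-100 micelles at pH 4.7. Reactions run 15 min at room temperature, with fluorescence read at 365/440 nm.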

[2] = Compound solubility in water; settings: for solubility: Compound Solubility in Water

Structure (SMILES) | activation at 0.1 µM [1] | activation at 1 µM [1] | solubility ([2]; water) | Percent Gcase Activation, 0.1 μM Test Compound [1] | solubility ([2]; water, in water) | Percent Gcase Activation, 1 μM Test Compound [1] | Compound Solubility in Water ([2]; in water) | Compound Solubility in Water ([2]; water)
COCc1cc(C(F)F)n2ccc(C(=O)NC3(C)CCOc4cc(F)c(F)cc43)c2n1 (stereo not shown) [III-58] | 10 to 20% | > 60% | 4.1 µg/mL (≈ 9.37 µM) |  |  |  |  | 
Cc1cc(C(F)F)n2ccc(C(=O)Nc3ccc(-c4cocn4)cc3)c2n1 [III-27] | > 20% | 30 to 60% | 0.3 µg/mL (≈ 0.814 µM) |  |  |  |  | 
Cc1cc(C)n2ccc(C(=O)Nc3ccc(-c4cnn(C)c4)nc3)c2n1 [III-21] | < 10% | < 30% | 0.2 µg/mL (≈ 0.577 µM) |  |  |  |  | 
CCCCCO[C@H]1CC[C@H](NC(=O)c2ccn3c(C(F)F)cc(C(F)F)nc23)CC1 [III-25] | > 20% | > 60% | 0.4 µg/mL (≈ 0.931 µM) |  |  |  |  | 
Cc1cc(C)n2ccc(C(=O)NC3CCCc4ccc(-c5cocn5)cc43)c2n1 (stereo not shown) [III-122] | 10 to 20% | > 60% | 0.8 µg/mL (≈ 2.07 µM) |  |  |  |  | 
C#Cc1ccc(NC(=O)c2ccn3c(C)cc(C)nc23)cc1 [III-2] | > 20% | > 60% | < 1.5 µg/mL |  |  |  |  | 
Cc1cc(C)n2ccc(C(=O)Nc3ccc4c(c3)OCO4)c2n1 [III-16] | > 20% | > 60% | 0.2 µg/mL (≈ 0.647 µM) |  |  |  |  | 
Cc1cc(C)n2ccc(C(=O)Nc3ccc4c(c3)CCC4)c2n1 [III-13] |  |  |  | *** (greater than 20% Gcase activation) |  | +++ (Gcase activation greater than 60%) |  | 0.06 µg/mL
CO[C@H]1CC[C@H](NC(=O)c2ccn3c(C)cc(C)nc23)CC1 [III-89] | < 10% | < 30% | 23.9 µg/mL (≈ 79.3 µM) |  |  |  |  | 
Cc1cc(C)n2ccc(C(=O)Nc3ccc(-c4cnn(C)c4)cc3)c2n1 [III-12] | > 20% | 30 to 60% | 0.06 µg/mL (≈ 0.174 µM) |  |  |  |  | 
Cc1cc(C)n2ccc(C(=O)NC3CCC(C(=O)N(C)C4CC4)CC3)c2n1 (stereo not shown) [III-134] | < 10% | < 30% | 38.5 µg/mL (≈ 104 µM) |  |  |  |  | 
CCCCO[C@H]1CC[C@H](NC(=O)c2ccn3c(C4CC4)cc(C)nc23)CC1 [III-44] | 10 to 20% | > 60% | 2.3 µg/mL (≈ 6.22 µM) |  |  |  |  | 
Cc1cc(Cl)nc2c(C(=O)Nc3ccc(-c4cocn4)cc3)ccn12 [III-38] | > 20% | 30 to 60% | 0.3 µg/mL (≈ 0.85 µM) |  |  |  |  | 
COCc1cc(COC)n2ccc(C(=O)NC3(C)CCOc4cc(F)c(F)cc43)c2n1 (stereo not shown) [III-155] | 10 to 20% | > 60% | 2.1 µg/mL (≈ 4.87 µM) |  |  |  |  | 
CCCCOC(=O)N1CC(NC(=O)c2ccn3c(C)cc(C)nc23)C1 [III-137] | < 10% | < 30% | 15.5 µg/mL (≈ 45 µM) |  |  |  |  | 
C#Cc1ccc(C(C)(C)NC(=O)c2ccn3c(C)cc(COC)nc23)cc1 [III-61] | > 20% | > 60% | 2.5 µg/mL (≈ 6.92 µM) |  |  |  |  | 
Cc1cc(Cl)nc2c(C(=O)NC3c4ccccc4C4CC3C4)ccn12 (stereo not shown) [III-69] | > 20% | > 60% | 0.06 µg/mL (≈ 0.171 µM) |  |  |  |  | 
CNc1cc(C)n2ccc(C(=O)N[C@H]3CC[C@H](OCC(C)C)CC3)c2n1 [III-71] | > 20% | > 60% | 1 µg/mL (≈ 2.79 µM) |  |  |  |  | 
Cc1cc(C)n2ccc(C(=O)Nc3ccc(C)c(-c4ncco4)c3)c2n1 [III-14] |  |  |  | *** (greater than 20% Gcase activation) |  | +++ (Gcase activation greater than 60%) |  | <1.5 µg/mL
Cc1cc(C)n2ccc(C(=O)NC3(C)CCOc4cccc(F)c43)c2n1 (stereo not shown) [III-118] | > 20% | > 60% | 1.4 µg/mL (≈ 3.96 µM) |  |  |  |  | 

Further lines, results first:

activation at 0.1 µM [1] | activation at 1 µM [1] | solubility ([2]; water) | Percent Gcase Activation, 0.1 μM Test Compound [1] | solubility ([2]; water, in water) | Percent Gcase Activation, 1 μM Test Compound [1] | Compound Solubility in Water ([2]; in water) | Compound Solubility in Water ([2]; water) | Structure (SMILES)
> 20% | > 60% | 0.8 µg/mL (≈ 2.5 µM) |  |  |  |  |  | Cc1cc(C)n2ccc(C(=O)NC3CCCc4ccccc43)c2n1 (stereo not shown) [III-167]
 |  |  | *** (greater than 20% Gcase activation) | 0.06 µg/mL (≈ 0.174 µM) |  |  |  | Cc1cc(C)n2ccc(C(=O)Nc3ccc(-c4cnn(C)c4)cc3)c2n1 [III-278]
< 10% | 30 to 60% | 0.9 µg/mL (≈ 2.72 µM) |  |  |  |  |  | O=C(N[C@H]1CCCc2ccccc21)c1ccn2c(C3CC3)ccnc12 [III-161]
 |  |  | * (less than 10% Gcase activation) |  | + (less than 30% Gcase activation) | 20.3 µg/mL |  | Cc1cc(C)n2ccc(C(=O)NC3CCC(c4ncco4)CC3)c2n1 (stereo not shown) [III-246]
> 20% | > 60% | 1.6 µg/mL (≈ 4.8 µM) |  |  |  |  |  | [2H]c1c(C([2H])([2H])[2H])nc2c(C(=O)NC(C)(C)c3ccc(F)cc3)cc([2H])n2c1C([2H])([2H])[2H] [III-160]
10 to 20% | > 60% |  |  | 20.1 µg/mL (≈ 49.3 µM) |  |  |  | CCOCCOC1CCC(NC(=O)c2ccn3c(C)cc(C)nc23)c2ccccc21 (stereo not shown) [III-231]
> 20% | > 60% |  |  | 1.5 µg/mL (≈ 4.2 µM) |  |  |  | CCCCCOC1CCCC(NC(=O)c2ccn3c(C)cc(C)nc23)C1 (stereo not shown) [III-234]
< 10% | > 60% | 12.3 µg/mL (≈ 35.8 µM) |  |  |  |  |  | CCCCCO[C@H]1CC[C@@H](NC(=O)c2ccn3c(C)cc(C)nc23)C1 [III-179]
< 10% | 30 to 60% |  |  | 17 µg/mL (≈ 42.7 µM) |  |  |  | CCCCCN(C)C(=O)[C@H]1CC[C@H](NC(=O)c2ccn3c(C)cc(C)nc23)CC1 [III-203]
10 to 20% | > 60% |  |  | 2.3 µg/mL (≈ 6.68 µM) |  |  |  | Cc1cc(C)n2ccc(C(=O)NC3CCCc4ccc(C#N)cc43)c2n1 (stereo not shown) [III-209]
< 10% | < 30% |  |  | 21.1 µg/mL (≈ 65 µM) |  |  |  | Cc1cc(C)n2ccc(C(=O)NC3CCc4nc(C)oc4C3)c2n1 (stereo not shown) [III-284]
10 to 20% | > 60% |  |  | 0.9 µg/mL (≈ 2.11 µM) |  |  |  | COCc1cc(C2CC2)nc2c(C(=O)NC3(C)CCOc4cc(F)c(F)cc43)ccn12 (stereo not shown) [III-266]
 |  |  | * (less than 10% Gcase activation) | 0.01 µg/mL (≈ 0.0292 µM) |  |  |  | Cc1cc(C)n2ccc(C(=O)Nc3ccc(-c4ccncc4)cc3)c2n1 [III-277]
< 10% | 30 to 60% |  |  | 1 µg/mL (≈ 2.57 µM) |  |  |  | Cc1cc(C)n2ccc(C(=O)NC3CCOc4ccc(-c5ncco5)cc43)c2n1 (stereo not shown) [III-207]
> 20% | > 60% |  |  | 0.2 µg/mL (≈ 0.655 µM) |  |  |  | Cc1cc(C)n2ccc(C(=O)N[C@H]3CCc4ccccc43)c2n1 [III-217]
< 10% | 30 to 60% |  |  | 27.1 µg/mL (≈ 80.6 µM) |  |  |  | Cc1cc(C)n2ccc(C(=O)NC3CC=C(c4ncco4)CC3)c2n1 (stereo not shown) [III-247]
> 20% | > 60% | 0.7 µg/mL (≈ 2.19 µM) |  |  |  |  |  | Cc1cc(C)n2ccc(C(=O)N[C@@H]3CCCc4ccccc43)c2n1 [III-168]
10 to 20% | > 60% |  |  | 0.8 µg/mL (≈ 1.99 µM) |  |  |  | CCCCO[C@H]1CC[C@H](NC(=O)c2ccn3c(COC)cc(CCC)nc23)CC1 [III-269]
< 10% | > 60% |  |  | 0.4 µg/mL (≈ 0.931 µM) |  |  |  | CCCc1cc(COC)n2ccc(C(=O)NC3(C)CCOc4cc(F)c(F)cc43)c2n1 (stereo not shown) [III-267]
10 to 20% | > 60% | 19.5 µg/mL (≈ 57.1 µM) |  |  |  |  |  | Cc1cc(C)n2ccc(C(=O)NC3CCCCC34CCOCC4)c2n1 (stereo not shown) [III-184]
